Read-outs that look alike come from different tables or passages of the source.
Tests used:
Format in all cases: in vivo
[1] = test system: Eiysiphe graminis f. sp. tritici; assay: Test A: wheat powdery mildew, preventive spray on wheat seedlings; conditions: for Test A disease control rating (100 = 100% disease control, 0 = no disease control): rating relative to controls; for Test A disease control rating: wheat powdery mildew
Method in brief: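 Compounds (3% acetone, 250 ppm Trem 014) sprayed to run-off on wheat seedlings, inoculated next day with spore dust. Incubated 7 days at 20° C before disease rating, 0–100% control relative to untreated controls.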

[2] = test system: Puccinia recondita; assay: Test B: wheat leaf rust, preventive spray on wheat seedlings; conditions: for Test B disease control rating (100 = 100% disease control, 0 = no disease control): rating relative to controls; for Test B disease control rating: wheat leaf rust
Method in brief: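 Wheat seedlings were sprayed to run-off with compound (3% acetone, 250 ppm Trem 014), then inoculated with P. recondita spores the next day. They were held 24 h saturated at 20 °C, then 6 days at 20 °C. Ratings are 0–100% disease control versus controls.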

[3] = test system: Pyricularia oryzae; conditions: for Test C disease control rating (100 = 100% disease control, 0 = no disease control): rating relative to controls; for Test C disease control rating: rice blast
[4] = test system: Phytophthora infestans; conditions: for Test D disease control rating (100 = 100% disease control, 0 = no disease control): rating relative to controls; for Test D disease control rating: tomato late blight
[5] = test system: Botrytis cinerea; assay: Test E: gray mold, preventive spray on cucumber seedlings; conditions: for Test E disease control rating (100 = 100% disease control, 0 = no disease control): rating relative to controls; for Test E disease control rating: gray mold on cucumber
Method in brief: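 Compounds in 3% acetone were suspended with 250 ppm Trem 014 surfactant and sprayed to run-off on cucumber seedlings. B. cinerea spores were inoculated next day, then 48 h saturated humidity at 20° C and 5 days at 20° C. Disease control rated 0–100% versus controls.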

[6] = wheat seedlings sprayed to run-off, inoculated the following day, unmarked compounds (standard test rate)
[7] = rice seedlings sprayed to run-off, inoculated the following day, unmarked compounds (standard test rate)
[8] = tomato seedlings sprayed to run-off, inoculated the following day, unmarked compounds (standard test rate)
[9] = cucumber seedlings sprayed to run-off, inoculated the following day, unmarked compounds (standard test rate)
[10] = 100 = 100% disease control, 0 = no control relative to controls, unmarked entries (standard test concentration)
[11] = 100 = 100% disease control, 0 = no control, unmarked entries (standard test concentration)
[12] = tested at 40 ppm, wheat seedlings

| SMILES | Test A disease control rating [1, 10] [%] | Test B disease control rating [2, 11] [%] | Test C disease control rating [3, 11] [%] | Test D disease control rating [4, 11] [%] | Test E disease control rating [5, 11] [%] | other results |
| --- | --- | --- | --- | --- | --- | --- |
| CCC1(C(=O)NC(C)COc2c(Cl)cc(F)cc2Cl)C(C)C1(Cl)Cl (stereo not drawn) [compound 251] |  |  |  |  |  | Test A disease control rating (100 = 100% disease control, 0 = no disease control) [1, 6]: 0%; Test B disease control rating (100 = 100% disease control, 0 = no disease control) [2, 6]: 0%; Test C disease control rating (100 = 100% disease control, 0 = no disease control) [3, 7]: 94%; Test D disease control rating (100 = 100% disease control, 0 = no disease control) [4, 8]: 0%; Test E disease control rating (100 = 100% disease control, 0 = no disease control) [5, 9]: 0% |
| CCc1ccccc1OCC(C)NC(=O)C(C#N)C(C)(C)C (mixture of isomers) [20b] | 0 | 0 | 100 | 0 | 0 |  |
| CCC1(C(=O)NC(C)COc2ccc(C(C)(C)C)cc2)C(C)C1(Cl)Cl (stereo not drawn) [compound 241] |  |  |  |  |  | Test A disease control rating (100 = 100% disease control, 0 = no disease control) [1, 6]: 38%; Test B disease control rating (100 = 100% disease control, 0 = no disease control) [2, 6]: 0%; Test C disease control rating (100 = 100% disease control, 0 = no disease control) [3, 7]: 74%; Test D disease control rating (100 = 100% disease control, 0 = no disease control) [4, 8]: 74%; Test E disease control rating (100 = 100% disease control, 0 = no disease control) [5, 9]: 0% |
| CC(COc1ccccc1CF)NC(=O)C(C#N)C(C)(C)C (mixture of isomers) [compound 175] |  |  |  |  |  | Test A disease control rating ([1]; tested at 40 ppm): 0%; Test B disease control rating ([2]; tested at 40 ppm): 0%; Test C disease control rating ([3]; tested at 40 ppm): 74%; Test D disease control rating ([4]; tested at 40 ppm): 33%; Test E disease control rating ([5]; tested at 40 ppm): 0% |
| CCC1(C(=O)NC(C)COc2c(Cl)cccc2C#N)C(C)C1(Cl)Cl (mixture of isomers) [compound 260] |  |  |  |  |  | Test A disease control rating (100 = 100% disease control, 0 = no disease control) [1, 6]: 0%; Test B disease control rating (100 = 100% disease control, 0 = no disease control) [2, 6]: 0%; Test C disease control rating (100 = 100% disease control, 0 = no disease control) [3, 7]: 74%; Test D disease control rating (100 = 100% disease control, 0 = no disease control) [4, 8]: 24%; Test E disease control rating (100 = 100% disease control, 0 = no disease control) [5, 9]: 83% |
| CCC1(C(=O)NC(C)COc2ccccc2F)C(C)C1(Cl)Cl (mixture of isomers) [78a] | 0 | 93 | 90 | 0 | 74 |  |
| C[C@H](COc1cc(F)ccc1F)NC(=O)C(C#N)C(C)(C)C=CF (single isomer, unassigned) [221b] |  |  |  |  |  | Test A disease control rating (100 = 100% disease control, 0 = no disease control) [1, 6]: 62%; Test B disease control rating (100 = 100% disease control, 0 = no disease control) [2, 6]: 68%; Test C disease control rating (100 = 100% disease control, 0 = no disease control) [3, 7]: 100%; Test D disease control rating (100 = 100% disease control, 0 = no disease control) [4, 8]: 41%; Test E disease control rating (100 = 100% disease control, 0 = no disease control) [5, 9]: 0% |
| CC(COc1ccc(F)cc1C#N)NC(=O)C(C#N)C(C)(C)C (mixture of isomers) [compound 40] | 21 | 0 | 86 | 0 | 0 |  |
| CCC1(C(=O)NC(C)COc2cc(F)cc(F)c2Cl)C(C)C1(Cl)Cl (stereo not drawn) [compound 318] |  |  |  |  |  | Test A disease control rating (100 = 100% disease control, 0 = no disease control) [1, 12]: 90%; Test B disease control rating (100 = 100% disease control, 0 = no disease control) [2, 12]: 0%; Test C disease control rating (100 = 100% disease control, 0 = no disease control) ([3]; tested at 40 ppm, rice seedlings): 53%; Test D disease control rating (100 = 100% disease control, 0 = no disease control) ([4]; tested at 40 ppm, tomato seedlings): 0%; Test E disease control rating (100 = 100% disease control, 0 = no disease control) ([5]; tested at 40 ppm, cucumber seedlings): 0% |
| CCCc1ccccc1OCC(C)NC(=O)C1(CC)C(C)C1(Cl)Cl (stereo not drawn) [98b] |  |  |  |  |  | Test A disease control rating ([1]; tested at 40 ppm): 52%; Test B disease control rating ([2]; tested at 40 ppm): 0%; Test C disease control rating ([3]; tested at 40 ppm): 74%; Test D disease control rating ([4]; tested at 40 ppm): 0%; Test E disease control rating ([5]; tested at 40 ppm): 0% |
| C[C@H](COc1cccc(Cl)c1)NC(=O)C(C#N)C(C)(C)C (single isomer, unassigned) [6d] | 77 | 28 | 97 | 0 | 0 |  |
| C[C@H](COc1ccc(F)c(F)c1F)NC(=O)C(C#N)C(C)(C)C (single isomer, unassigned) [190a] | 0 | 0 | 91 | 0 | 6 |  |
| CCC1(C(=O)NC(C)COn2c(C#N)cc(Br)c2C)C(C)C1(Cl)Cl (mixture of isomers) [compound 141] | 38 | 68 | 74 | 84 | 0 |  |
| CC(COc1c(C#N)cccc1C(F)F)NC(=O)C(C#N)C(C)(C)C (mixture of isomers) [compound 206] | 0 | 0 | 74 | 0 | 0 |  |
| C=CCc1ccccc1OCC(C)NC(=O)C(C#N)C(C)(C)C (mixture of isomers) [25b] | 63 | 0 | 97 | 24 | 0 |  |
| Cc1c(Cl)cc(C#N)n1OCC(C)NC(=O)C(C#N)C(C)(C)C (mixture of isomers) [compound 49] | 0 | 0 | 0 | 0 | 0 |  |
| CCC1(C(=O)NCCCn2c(C)cc(C)c2C#N)C(C)C1(Cl)Cl (stereo not drawn) [compound 150] | 0 | 0 | 60 | 0 | 87 |  |
| C[C@H](COc1cccc(Cl)c1Cl)NC(=O)C(C#N)C(C)(C)C (single isomer, unassigned) [31b] | 0 | 0 | 94 | 0 | 0 |  |
| C[C@H](COc1ccc(F)c(F)c1Br)NC(=O)C(C#N)C(C)(C)C (single isomer, unassigned) [187a] | 0 | 28 | 94 | 9 | 6 |  |
| CCC1(C(=O)NC(C)COc2ccccc2C(F)(F)F)C(C)C1(Cl)Cl (mixture of isomers) [94a] | 0 | 0 | 0 | 0 | 0 |  |
| CC(COc1ccccc1C(F)(F)F)NC(=O)C(C#N)C(C)(C)C (mixture of isomers) [17b] | 38 | 28 | 100 | 0 | 0 |  |
| CCC1(C(=O)NC(C)COc2c(F)cccc2F)C(C)C1(Cl)Cl (mixture of isomers) [105a] | 0 | 0 | 53 | 0 | 55 |  |
| CCC1(C(=O)NC(C)COc2cc(F)c(F)cc2F)C(C)C1(Cl)Cl (stereo not drawn) [compound 236] |  |  |  |  |  | Test A disease control rating (100 = 100% disease control, 0 = no disease control) [1, 6]: 77%; Test B disease control rating (100 = 100% disease control, 0 = no disease control) [2, 6]: 0%; Test C disease control rating (100 = 100% disease control, 0 = no disease control) [3, 7]: 97%; Test D disease control rating (100 = 100% disease control, 0 = no disease control) [4, 8]: 0%; Test E disease control rating (100 = 100% disease control, 0 = no disease control) [5, 9]: 0% |
| C[C@H](COc1cc(F)c(Cl)cc1F)NC(=O)C(C#N)C(C)(C)C (single isomer, unassigned) [173a] | 63 | 28 | 52 | 33 | 0 |  |
| C[C@H](COc1c(F)cc(F)cc1F)NC(=O)C(C#N)C(C)(C)C (single isomer, unassigned) [189a] | 0 | 0 | 97 | 0 | 6 |  |
| C[C@H](COc1cccc(C(F)(F)F)c1)NC(=O)C(C#N)C(C)(C)C (single isomer, unassigned) [18a] | 0 | 0 | 91 | 0 | 0 |  |
| CC(COc1ccc(Br)cc1)NC(=O)C(C#N)C(C)(C)C (single isomer, unassigned) [10a] | 0 | 27 | 86 | 23 | 0 |  |

Source: patent publication US6642392B1 (priority 1997, dated 2003)
